Source: patent US5827655A (priority 1995, dated 1998)

How the values were obtained:
MK3 K+ channels = molecular target: T1, MK3 K+ channels (Mus musculus, UniProt P16390); test: cell-based
T1 construct: The MK3 coding region was inserted into the pSP64T cloning vector; expressed in transfected cells; host or cells: Xenopus oocytes injected with MK3 mRNA (in vitro transcript from pSP64T)

type n K+ channel (mice) = settings: Table I, type n currents, mouse T cells; read-out: Blockers, half-blocking dose; cited from earlier work
[1] = system: type n K+ channel (human); settings: Table I, type n currents, human T cells; read-out: Blockers, half-blocking dose; cited from earlier work

T1 sequence (P16390 whole entry): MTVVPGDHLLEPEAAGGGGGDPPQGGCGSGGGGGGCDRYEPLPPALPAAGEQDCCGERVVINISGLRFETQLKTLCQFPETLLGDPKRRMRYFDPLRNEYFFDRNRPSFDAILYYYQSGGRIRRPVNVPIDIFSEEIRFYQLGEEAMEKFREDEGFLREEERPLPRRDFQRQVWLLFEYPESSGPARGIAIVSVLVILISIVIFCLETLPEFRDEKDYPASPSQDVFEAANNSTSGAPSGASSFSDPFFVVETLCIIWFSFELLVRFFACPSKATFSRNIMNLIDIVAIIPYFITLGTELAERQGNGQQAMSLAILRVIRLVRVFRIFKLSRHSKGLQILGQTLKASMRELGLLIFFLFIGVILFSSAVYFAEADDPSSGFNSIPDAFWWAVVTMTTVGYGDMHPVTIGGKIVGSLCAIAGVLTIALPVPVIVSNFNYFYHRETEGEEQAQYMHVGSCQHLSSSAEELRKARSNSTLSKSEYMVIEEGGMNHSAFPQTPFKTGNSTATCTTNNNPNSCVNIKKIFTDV

Compound: Charybdotoxin [CTX]
- Block of MK3 channels in oocytes (in words) (MK3 K+ channels; CTX from both sources (C. Miller and M. Garcia)): blocked MK3 channels in oocytes

Compound: Nc1ccncc1 [4-AP, 4-aminopyridine]
- IC50 [1]: 0.19 mM

Compound: CC[N+](CC)(CC)CC [TEA, tetraethylammonium]
- Kd (MK3 K+ channels; FIG. 3C, outside-out patch, oocyte injected with MK3 mRNA, read-out: Kd, dose-response curve of drugs blocking MK3 K+ current): 11 mM
- IC50 (MK3 K+ channels; Table I, MK3 currents in oocytes, read-out: Blockers, half-blocking dose): 11 mM
